Article PMC11134608, “UBR5 forms ligand-dependent complexes on chromatin to regulate nuclear hormone receptor stability” (Molecular cell, 2023)

Experiments:
[1] = system: RARA and RXRA protein levels in NB4 cells; assay: Whole-proteome mass spectrometry of NB4 cells; format: cell-based, human; conditions: ATRA 24 h, n = 3 per condition
Protocol: Cells were lysed by addition of lysis buffer (8 M Urea, 50 mM NaCl, 50 mM 4-(2-hydroxyethyl)-1-piperazineethanesulfonic acid (EPPS) pH 8.5, Protease and Phosphatase inhibitors) and homogenization by bead beating (BioSpec) for three repeats of 30 seconds at 2400. Bradford assay was used to determine the final protein concentration in the clarified cell lysate. […] Desalted peptides were dried in a vacuum-centrifuged and reconstituted in 0.1% formic acid for LC-MS analysis.
Data were collected using a TimsTOF Pro2 (Bruker Daltonics, Bremen, Germany) coupled to a nanoElute LC pump (Bruker Daltonics, Bremen, Germany) via a CaptiveSpray nano-electrospray source.
The ddaPASEF parameters included: 100% duty cycle using accumulation and ramp times of 50 ms each, 1 TIMS-MS scan and 10 PASEF ramps per acquisition cycle. […] The quadrupole isolation width was set to 2 m/z for m/z <700 and 3 m/z for m/z >800, with the m/z between 700–800 m/z being interpolated linearly. […] To perform diaPASEF, the precursor distribution in the DDA m/z-ion mobility plane was used to design an acquisition scheme for DIA data collection which included two windows in each 50 ms diaPASEF scan. […]

RARA and PML-RARA = assay: Western blotting of RARA / PML-RARA degradation in NB4 cells; format: cell-based, human
Protocol: Membranes were blocked for 30 minutes to 1 hour at room temperature in Odyssey Blocking Buffer/PBS (LI-COR Biosciences), and incubated with primary antibodies at 4 °C overnight. Stained membranes were washed three times in Tris-buffered saline with Tween 20 (TBS-T) and incubated for 1 hour at room temperature with secondary IRDye-conjugated antibodies (LI-COR Biosciences). Membranes were washed three times in TBS-T before imaging (Odyssey Imaging System, LI-COR Biosciences).

NB4 cells = assay: NB4 viability (relative cell counts); format: cell-based, human; conditions: shUBR5 vs shCTRL, n = 4
Protocol: (D) Western blotting of NB4 cells transduced with shRNAs against luciferase (shCTRL) or UBR5 treated with or without ATRA. (E) Viability by relative cell counts of NB4 cells transduced with control or UBR5 shRNAs (two shRNAs per condition, combined) following treatment with 1 μM ATRA for 24 h. (n = 4, two-sided t test). […] (NS, not significant, *p < 0.05, **p < 0.005, ***p < 0.0005, ****p < 0.00005, error bars represent SEM.)
All flow cytometry-based assays (degradation and viability assays) were run in triplicate (n=3) unless otherwise specified where n represents a distinct flow cytometric specimen (a well or tube containing ~100,000 cells). P-values were calculated using GraphPad Prism two-sided t-test and are centered around the mean and error bars represent the SEM unless otherwise specified.
K. NB4 cell viability following
transduction of shRNAs againstluciferase or UBR5 and ATRA treatment for 3 days.Data from two shRNAs are combined.(n=4, two sided t-test)NS,not significant, *p < 0.05, **p <0.005, ***p<

UBR5-RARA = assay: In vitro FLAG-UBR5 pull-down of His-tagged RARA; format: binding, human; conditions: 50 μM ligand, anti-His western, 25 mM HEPES pH 7.4, 125 mM NaCl, 0.05% TWEEN-20
Protocol: 12 μL of FLAG M2 slurry were equilibrated with binding buffer (25 mM HEPES pH 7.4, 125 mM NaCl, 0.05% TWEEN-20). The resin was pelleted and excess buffer removed. 60 μL of fresh binding buffer was re-added, followed by addition of 15 pmol (2.5 μL ofa6 μM solution) of purified FLAG-UBR5 protein and incubated on a rotating wheel at 4°C for 60–90 minutes. The resin was pelleted, excess buffer removed, and 150 μL fresh binding buffer (supplemented with 50 μM ligand of interest or DMSO) added, followed by 150 pmol protein (binding partner protein of interest) and incubated for another 60 minutes. The resin was pelleted, excess buffer removed and washed with 400 μL of binding buffer (supplemented with ligand of interest or DMSO), and this process was repeated three times. The resin was pelleted, excess buffer removed and 45 μL of binding buffer supplemented with 1 mg/mL 3xFLAG peptide was added to elute proteins over 30 minutes on a rotating wheel at room temperature. The resin was pelleted, and 40 μL of the supernatant was collected and mixed with 12 μL of 5xSDS gel loading buffer. 6 μL of these samples were applied to SDS-PAGE on a 4–20% gradient gel (Biorad). The gel was transferred to a nitrocellulose membrane using the Trans-Blot Turbo Transfer System (Biorad). Following blocking with 5% skim milk solution in TBST, primary antibodies targeting the NR proteins were added in TBST and incubated overnight at 4 °C. The following day, membranes were washed thrice with TBST buffer and incubated for 45 minutes with fluorescent secondary antibody (Invitrogen A11357), followed by three more washes with TBST. Imaging was performed on a Licor Odyssey system, scanned at 800 nm.

UBR5-RARA/RXRA [2] = assay: In vitro FLAG-UBR5 pull-down of His-tagged RARA/RXRA heterodimer; format: binding, human; conditions: 50 μM ATRA, mutant proteins
Protocol: The resin was pelleted and excess buffer removed. 60 μL of fresh binding buffer was re-added, followed by addition of 15 pmol (2.5 μL ofa6 μM solution) of purified FLAG-UBR5 protein and incubated on a rotating wheel at 4°C for 60–90 minutes. The resin was pelleted, excess buffer removed, and 150 μL fresh binding buffer (supplemented with 50 μM ligand of interest or DMSO) added, followed by 150 pmol protein (binding partner protein of interest) and incubated for another 60 minutes. The resin was pelleted, excess buffer removed and washed with 400 μL of binding buffer (supplemented with ligand of interest or DMSO), and this process was repeated three times. The resin was pelleted, excess buffer removed and 45 μL of binding buffer supplemented with 1 mg/mL 3xFLAG peptide was added to elute proteins over 30 minutes on a rotating wheel at room temperature. The resin was pelleted, and 40 μL of the supernatant was collected and mixed with 12 μL of 5xSDS gel loading buffer. 6 μL of these samples were applied to SDS-PAGE on a 4–20% gradient gel (Biorad). The gel was transferred to a nitrocellulose membrane using the Trans-Blot Turbo Transfer System (Biorad). Following blocking with 5% skim milk solution in TBST, primary antibodies targeting the NR proteins were added in TBST and incubated overnight at 4 °C. […]

RARA reporter = RARA reporter degradation (GFP/mCherry); format: cell-based, human
Protocol: (§1) Reporter cell lines were seeded in triplicate at a density of 1 million cells/ml in 100 μl per well in a 96 well plate and measured once. Ligand was added by Digital Dispenser (Tecan), and incubated at 37°C for the appropriate time before reading by flow cytometry. Cells were analyzed for GFP vs mCherry expression. GFP expression was normalized to mCherry signal and ligand treatments were compared to DMSO controls.

PML-RARA-GFP reporter = PML-RARA-GFP reporter degradation; format: cell-based, human; conditions: equivalent single-residue glutamate substitutions
Protocol: as §1

[3] = system: RARA complexes (NCOR, NCOA, UBR5); assay: RARA-GFP immunoprecipitation (IP-MS and IP-western); format: cell-based, human
Protocol: To examine the temporal dynamics of this competition in cells, we performed sequential RARA immunoprecipitation/mass spectrometry (IP/MS) in the presence of MG132 at 0, 4, and 16 h following ATRA treatment.
Reporter cells (up to 100 million) were treated with ligand (ATRA, dexamethasone) and allowed to incubate for different time points. […] Lysates were incubated with GFP-Trap Magnetic Agarose beads (ChromoTek, GTMA-20) overnight at 4°C on a rotator. Beads were magnetically removed and washed three times with Pierce IP Lysis Buffer with ligand added before boiling in 1x NuPAGE LDS Sample Buffer (ThermoFischer, NP0007).
After the washing step, samples were eluted using Glycine-HCl buffer (0.2 M, pH 2.4) and rebuffered to pH 8.0. The IP eluates were reduced with 10 mM TCEP for 30 min at room temperature, and then alkylated with 15 mM iodoacetamide for 45 min at room temperature in the dark. Alkylation was quenched by the addition of 10 mM DTT. Proteins were isolated by methanol-chloroform precipitation. The protein pellets were dried and then resuspended in 50 μL 200 mM EPPS pH 8.0. The resuspended protein samples were digested with 2 μg LysC overnight at room temperature followed by the addition of 0.5 μg Trypsin for 6 h at 37°C. Protein digests were dried, resuspended in 100 μL 1% formic acid, and desalted using 10-layer C18 stage-tips before being analyzed by LC-MS.

[4] = system: RARA and UBR5 on chromatin in NB4 cells; assay: ChIP-seq of RARA and UBR5 in NB4 cells; format: cell-based, human; conditions: NB4, ATRA 8 and 24 h vs DMSO
Protocol: Cell lines were expanded (up to 50 million), treated with ligand, and incubated at 37 °C. Cells were pelleted by centrifugation for 5 minutes, washed twice with cold PBS, and resuspended, in 5 ml of room temperature PBS. 20 μl of 0.5M Disuccinimidyl glutarate (DSG) (ThermoFisher), was added and incubated for 30 minutes at room temperature. Cells were pelleted by centrifugation and resuspended in 8.325 ml of PBS and 8.325 ml of 2% formaldehyde and incubated for 30 minutes at room temperature. Cross-linking was quenched by the addition of 1665 μl of 1 M Tris-HCl pH 8.0 and 832.5 μl of 2.5 M glycine. Cells were pelleted and washed twice with PBS. Cross-linked cells were resuspended in LB1 Buffer (50mM HEPES-KOH, pH7.5, 140mM NaCl, 1mM EDTA, 10% Glycerol, 0.5% NP-40, 0.25% Triton X-100 in distilled water) and rotated for 10 minutes at 4C. Cells were pelleted and resuspended in LB2 (10mM Tris-HCl, pH 8.0, 200mM NaCl, 1mM EDTA, 0.5mM EGTA in distilled water) and rotated for 10 minutes at 4C. Cells were pelleted and resuspended in LB3 (10mM Tris-HCL, pH 8.0, 100mM NaCl, 1mM EDTA, 0.5mM EGTA, 0.1% Na-deoxycholate, 0.5% Na-Lauroylsarcosine, 1% Triton X-100, in distilled water) sonicated (Covaris, E220). […] Fragment length and concentrations were assessed using TapeStation (Agilent) and Qubit (ThermoFisher), and libraries were sequenced on an Illumina NextSeq 550 sequencer. […]

[5] = system: ATRA-induced gene expression in NB4 cells; assay: RNA sequencing of NB4 cells; format: cell-based, human; conditions: NB4, ATRA 0, 8, 24, 48 h
Protocol: Cell lines were expanded, treated with ligand, and incubated at 37C. Cells were pelleted by centrifugation for 5 minutes, washed with cold PBS, and RNA was isolated by RNeasy kit (Qiagen) per manufacturer’s instructions. RNA was sent to Novogene for library preparation and sequencing, or prepared for sequencing (NEBNext, New England Biolabs) and sequenced on an Illumina NextSeq 550 sequencer.
Paired-end reads were aligned to the hg38.p13[81],[82] reference genome with the STAR[83] (v5.2.7b) aligner as part of the RSEM[99] command line tool. Gene transcript abundance was further quantified from aligned fragments using RSEM to generate a gene-by-sample matrix of expected counts. Differential expression was tested, as with the ChIP-seq data, using the DESeq[88],[93]2 and ashr[94] pipeline, this time calculating sample-specific scale factor offset using the method of median-ratio as implemented in the R package EBSeq[100] (v1.36.0). For plotting in heatmaps, genes were selected based on ChIP-seq peak annotation and subset.

UBR5-RARA/RXRA [6] = assay: RARE dsDNA incorporation into UBR5-RARA/RXRA complex; format: binding, human
Protocol: A.Western blot (anti-His)showingin vitroFLAG-UBR5 pulldownofpurified His-tagged RARA/RXRA heterodimer, showing thata fluorescein-labelled 24-merdsDNAcontaining a DR5 Retinoic Acid
Immediately before preparing samples for SDS-PAGE, fluorescence
counts were measured at 488 nm to assessdsDNAincorporation. Fluorescence counts were normalized to the –dsDNA, DMSO condition as abaseline.

PML-RARA = system: PML-RARA; design: method as in PMID 10611294, PMID 20378816; conditions: ATRA targets RARA, ATO targets PML, ref [6],[11]; cited from earlier work

CC1=C(/C=C/C(C)=C/C=C/C(C)=C/C(=O)O)C(C)(C)CCC1 [ATRA, all-trans-retinoic acid]
protein levels of RARA and RXRA [1]: significantly and selectively decreased
RARA and PML-RARA degradation, proteasome / neddylation dependence (RARA and PML-RARA; 10 µM ATRA with MG132 or MLN4924): dependent on the proteasome, but not neddylation
effect of UBR5 knockdown on PML-RARA degradation (RARA and PML-RARA; UBR5 shRNA): prevented ATRA-induced degradation of PML-RARA in NB4 cells
effect of UBR5 knockdown on RARA degradation (RARA and PML-RARA; UBR5 shRNA vs control shRNA): rescued ATRA-induced RARA degradation
ATRA sensitivity upon UBR5 knockdown (NB4 cells): decreased ATRA sensitivity in NB4 cells
binding of RARA to UBR5 (UBR5-RARA): robustly induced binding of RARA to UBR5
agonist-induced binding of RARA V240E / RXRA V280E to UBR5 (UBR5-RARA/RXRA [2]): abolished agonist-induced binding to UBR5 in vitro
requirement of UBR5 HECT domain for RARA reporter degradation (RARA reporter; HEK293, CRISPR-edited UBR5 deficient of HECT domain, n = 3): necessary for ATRA-induced RARA reporter degradation
degradation of RARA reporter, I254 / I258 glutamate mutants (RARA reporter; I254 and I258 mutations, n = 3): significantly reduced ATRA-induced degradation
RARA LBD reporter degradation (RARA reporter; RARA LBD only, ATRA): still mediated ATRA-induced reporter degradation
degradation of RARA reporter, V240 glutamate mutant (RARA reporter; V240 single mutation, n = 3): abolished ATRA-induced degradation
degradation of PML-RARA-GFP reporter, cleft mutants (PML-RARA-GFP reporter): blocked ATRA-induced degradation of the PML-RARA-GFP reporter in cells
RARA-associated NCOA1 and UBR5 by IP-western ([3]; U937 RARA-GFP, 10 µM ATRA / MG132, 0-24 h): initial NCOA1 binding to RARA after 4 h of ATRA treatment, diminishing NCOA1 binding from 4 to 16 h, and increased binding of UBR5 at 16 and 24 h
RARA-associated UBR5 by IP/MS ([3]; with MG132, 0, 4, 16 h ATRA): enrichment of UBR5 peptides at 16 h post ATRA treatment
RARA ChIP-seq peaks [4]: lost following ATRA treatment
UBR5 ChIP-seq binding at RARA loci [4]: binding was strengthened following ATRA treatment
effect of UBR5 knockdown on ATRA-induced transcription [5]: strongly decreased transcriptional activation
DNA incorporation into UBR5-RARA/RXRA complex (UBR5-RARA/RXRA [6]): DNA was readily incorporated into a UBR5-RARA/RXRA complex
PML-RARA degradation (literature) (PML-RARA): PML-RARA is degraded therapeutically
